According to US7888042B2, “Methods for identifying insulin mimetics” (Ohio University, priority 2005, dated 2011):

Assays:
Assay type in all cases: cell-based
3T3-L1 adipocytes [1] = test: Glucose uptake assay in 3T3-L1 adipocytes
Experimental: Chemical synthesis yields both the α- and β-anomers of PGG. (B) Glucose transport stimulatory activity (13, 14) of PGG was assessed by incubating adipocytes in 6-well plates with insulin or PGG for 15 min followed by the addition of [^3H]-2-deoxy-D-glucose for 10 min before quantifying uptake (13, n=3, mean±SD, Two way-ANOVA, * P<0.05; ** P<0.01). α-PGG (●); β-PGG (□); insulin (∘). (C) Glucose transport induced by insulin in the presence of α-PGG. One […] of insulin was added to adipocytes in the presence of increasing amounts of α-PGG. After induction, radioactive glucose was added, and the glucose taken up by the cells was counted.
Reagents, compound synthesis, and glucose uptake assay. Bovine insulin was purchased from Sigma. PGG, in an approximate 1:1 mixture of α- and β-PGG, was synthesized from glucose in the non-radioactive form as described (22). The identity of the compounds was confirmed by MS and NMR. The compounds were dissolved in double distilled water (ddH2O), filter sterilized, and stored as a 10 mM aqueous stock solution at −20° C. The stock solutions were diluted to final concentrations with sterile ddH2O. Glucose uptake assays in 3T3-L1 adipocytes induced by PGG were performed as described (13).

3T3-L1 adipocytes [2] = test: Glucose uptake assay with insulin signaling pathway inhibitors; settings: inhibitor added along with α-PGG
Experimental: (§1) (A) Glucose transport was measured by determining [^3H]-2-deoxyglucose uptake stimulated by either insulin or α-PGG in 3T3-L1 cells in the presence or absence of HNMPA-(AM)3, an inhibitor of IR tyrosine kinase activity (24); wortmannin, an inhibitor of PI 3-kinase (25), or cytochalasin B, an inhibitor of GLUT4 (26), (n=4, mean±SD). (B) Cells were induced by 20 or 40 μM α-PGG or 100 nM insulin for 15 min. Cell lysates were separated by PAGE and analyzed for phosphorylation of IR (in CHO-IR cells) or Akt (in adipocytes) using antibodies specific to the target proteins. (C) Cells were treated with α-PGG and insulin in a fashion similar to (B) and assayed for their respective PI-3 kinase activity with a radioactive TLC method (27). (D) In similar experiments, intact cells were analyzed by confocal microscopy for translocation of GLUT4 using anti-GLUT4 antibodies.
Insulin signaling pathway study with inhibitors. To identify the signaling pathway and its potential protein target for PGG's glucose transport activity, three inhibitors to the insulin signaling pathway were selected. […] Inhibitors were individually added to the 3T3-L1 adipocytes along with either α-PGG or insulin at predetermined concentrations during glucose uptake assays, and the inhibition was measured by the glucose taken in by the cell samples treated with or without inhibitors.

GLUT4 = GLUT4 translocation, confocal microscopy; settings: adipocytes, 37° C., 15 min
Experimental: as §1
Protein phosphorylation/activation and GLUT4 translocation. To investigate signal transduction induced by α-PGG, proteins from 3T3-L1 adipocytes or CHO-IR cells (23), which were treated with α-PGG or insulin for 15 min, were isolated, separated by PAGE, blotted on nylon membranes, and analyzed by Western blotting with antibodies against either IR or Akt. […]

O=C(OC[C@H]1OC(OC(=O)c2cc(O)c(O)c(O)c2)[C@H](OC(=O)c2cc(O)c(O)c(O)c2)[C@@H](OC(=O)c2cc(O)c(O)c(O)c2)[C@@H]1OC(=O)c1cc(O)c(O)c(O)c1)c1cc(O)c(O)c(O)c1 (stereo partly drawn) [PGG, 1,2,3,4,6-penta-O-galloyl-D-glucose]
mode of action at IR for glucose transport activity (3T3-L1 adipocytes [1]): partial agonist

C=C1[C@@H](C)[C@H]2[C@H](Cc3ccccc3)NC(=O)[C@]23OC(=O)/C=C/[C@H](O)CCC[C@@H](C)C/C=C/[C@H]3[C@@H]1O [cytochalasin B]
glucose transport activity induced by α-PGG in presence of inhibitor (3T3-L1 adipocytes [2]): completely abolished

O=C(OC[C@H]1O[C@@H](OC(=O)c2cc(O)c(O)c(O)c2)[C@H](OC(=O)c2cc(O)c(O)c(O)c2)[C@@H](OC(=O)c2cc(O)c(O)c(O)c2)[C@@H]1OC(=O)c1cc(O)c(O)c(O)c1)c1cc(O)c(O)c(O)c1 [β-PGG]
induction of glucose transport (3T3-L1 adipocytes [1]; 3T3-L1 adipocytes, [3H]-2-deoxy-D-glucose uptake, 15 min incubation): induced glucose transport in adipocytes in a dose-dependent manner

insulin: Bovine insulin purchased from Sigma
GLUT4 translocation (GLUT4): translocated to the plasma membrane
